In US7256007B2, “Methods of regulating cytokine signalling” (The Walter and Eliza Hall Institute of Medical Research, priority 2000, dated 2007):
Square brackets hold non-standard residues; d marks the D form. Ends that are not written are not given here. Peptide text beside a SMILES is read from it. pY = N[C@@H](Cc1ccc(OP(=O)(O)O)cc1)C(=O)O

B1: AcE(pY)STVVHSG (peptide)
chain: Ac-E[pY]STVVHSG-NH2
SMILES: CC(=O)N[C@@H](CCC(=O)O)C(=O)N[C@@H](Cc1ccc(OP(=O)(O)O)cc1)C(=O)N[C@@H](CO)C(=O)N[C@H](C(=O)N[C@H](C(=O)N[C@H](C(=O)N[C@@H](Cc1c[nH]cn1)C(=O)N[C@@H](CO)C(=O)NCC(N)=O)C(C)C)C(C)C)[C@@H](C)O
B2: gp130 phosphopeptide V12A (peptide)
chain: STASTVE[pY]STVAHSG-NH2
modifications: N-terminus assumed
SMILES: CC(C)[C@H](NC(=O)[C@@H](NC(=O)[C@H](CO)NC(=O)[C@H](Cc1ccc(OP(=O)(O)O)cc1)NC(=O)[C@H](CCC(=O)O)NC(=O)[C@@H](NC(=O)[C@@H](NC(=O)[C@H](CO)NC(=O)[C@H](C)NC(=O)[C@@H](NC(=O)[C@@H](N)CO)[C@@H](C)O)[C@@H](C)O)C(C)C)[C@@H](C)O)C(=O)N[C@@H](C)C(=O)N[C@@H](Cc1c[nH]cn1)C(=O)N[C@@H](CO)C(=O)NCC(N)=O
B3: AcTVE(pY)STVVHSG (peptide)
chain: Ac-TVE[pY]STVVHSG-NH2
SMILES: CC(=O)N[C@H](C(=O)N[C@H](C(=O)N[C@@H](CCC(=O)O)C(=O)N[C@@H](Cc1ccc(OP(=O)(O)O)cc1)C(=O)N[C@@H](CO)C(=O)N[C@H](C(=O)N[C@H](C(=O)N[C@H](C(=O)N[C@@H](Cc1c[nH]cn1)C(=O)N[C@@H](CO)C(=O)NCC(N)=O)C(C)C)C(C)C)[C@@H](C)O)C(C)C)[C@@H](C)O
B4: Ac(pY)STVVHSG (peptide)
chain: Ac-[pY]STVVHSG-NH2
SMILES: CC(=O)N[C@@H](Cc1ccc(OP(=O)(O)O)cc1)C(=O)N[C@@H](CO)C(=O)N[C@H](C(=O)N[C@H](C(=O)N[C@H](C(=O)N[C@@H](Cc1c[nH]cn1)C(=O)N[C@@H](CO)C(=O)NCC(N)=O)C(C)C)C(C)C)[C@@H](C)O
B5: gp130 phosphopeptide H13A (peptide)
chain: STASTVE[pY]STVVASG-NH2
modifications: N-terminus assumed
SMILES: CC(C)[C@H](NC(=O)[C@@H](NC(=O)[C@@H](NC(=O)[C@H](CO)NC(=O)[C@H](Cc1ccc(OP(=O)(O)O)cc1)NC(=O)[C@H](CCC(=O)O)NC(=O)[C@@H](NC(=O)[C@@H](NC(=O)[C@H](CO)NC(=O)[C@H](C)NC(=O)[C@@H](NC(=O)[C@@H](N)CO)[C@@H](C)O)[C@@H](C)O)C(C)C)[C@@H](C)O)C(C)C)C(=O)N[C@@H](C)C(=O)N[C@@H](CO)C(=O)NCC(N)=O
B6: AcVA(pY)STVVHSG (peptide)
chain: Ac-VA[pY]STVVHSG-NH2
SMILES: CC(=O)N[C@H](C(=O)N[C@@H](C)C(=O)N[C@@H](Cc1ccc(OP(=O)(O)O)cc1)C(=O)N[C@@H](CO)C(=O)N[C@H](C(=O)N[C@H](C(=O)N[C@H](C(=O)N[C@@H](Cc1c[nH]cn1)C(=O)N[C@@H](CO)C(=O)NCC(N)=O)C(C)C)C(C)C)[C@@H](C)O)C(C)C

Tests used:
SOCS-3 = molecular target: T1, SOCS-3 (Mus musculus, UniProt O35718); assay: Competitive binding assay on the Biosensor: soluble peptide displaces SOCS-3 from immobilized gp130 (750-764) phosphopeptide; design: species or system murine; details: for IC50 analogue/IC50 wild-type: relative to gp130 (750-764) parent phosphopeptide; for IC50: IC50, Table 2, gp130(750-764) phosphopeptide and analogues
T1 construct: hexahistidine (pET15b) (N); made in house; host or cells: E. coli BL21 DE3 pLysS
T1 sequence (O35718 1-225): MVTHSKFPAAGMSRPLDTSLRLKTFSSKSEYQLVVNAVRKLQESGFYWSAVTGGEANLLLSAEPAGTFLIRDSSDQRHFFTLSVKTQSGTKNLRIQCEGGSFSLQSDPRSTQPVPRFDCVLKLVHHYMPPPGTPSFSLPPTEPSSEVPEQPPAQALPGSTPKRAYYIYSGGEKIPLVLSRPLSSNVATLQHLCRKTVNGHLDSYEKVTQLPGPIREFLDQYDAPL
Experimental: Purified protein was refolded by dialysis into PBS containing 2 mM DTT, 2 mM EDTA and 0.02% v/v Tween 20. Refolded material was purified to homogeneity by ion exchange chromatography on a Mono S column (Pharmacia).
Samples were left overnight at 4° C. prior to analysis on the Biosensor so that the rate of protein loss due to absorption was minimal through the course of the experiment.
The inventors also used this competition assay to reassess the potential solution binding of the phosphopeptides listed in FIG. 1A.

[1] = molecular target: T2, SOCS-3 (recombinant, His-tagged) (mouse, UniProt O35718); assay: competition, SPR
T2 chain: T1 sequence (O35718 1-225)

Molecule | IC50 analogue/IC50 wild-type (SOCS-3) | IC50 (SOCS-3) [nM] | IC50 [1] [nM]
CC(=O)N[C@H](C(=O)N[C@@H](C)C(=O)N[C@@H](Cc1ccc(OP(=O)(O)O)cc1)C(=O)N[C@@H](CO)C(=O)N[C@H](C(=O)N[C@H](C(=O)N[C@H](C(=O)N[C@@H](Cc1c[nH]cn1)C(=O)N[C@@H](CO)C(=O)NCC(N)=O)C(C)C)C(C)C)[C@@H](C)O)C(C)C [AcVA(pY)STVVHSG] (Ac-VA[pY]STVVHSG-NH2) | 5.0 |  | 
CC(C)[C@H](NC(=O)[C@@H](NC(=O)[C@@H](NC(=O)[C@H](CO)NC(=O)[C@H](Cc1ccc(OP(=O)(O)O)cc1)NC(=O)[C@H](CCC(=O)O)NC(=O)[C@@H](NC(=O)[C@@H](NC(=O)[C@H](CO)NC(=O)[C@H](C)NC(=O)[C@@H](NC(=O)[C@@H](N)CO)[C@@H](C)O)[C@@H](C)O)C(C)C)[C@@H](C)O)C(C)C)C(=O)N[C@@H](Cc1c[nH]cn1)C(=O)N[C@@H](CO)C(N)=O [STASTVE(pY)STVVHS] | 0.55 |  | 
CC(C)[C@H](NC(=O)[C@@H](NC(=O)[C@H](CO)NC(=O)[C@H](Cc1ccc(OP(=O)(O)O)cc1)NC(=O)[C@H](CCC(=O)O)NC(=O)[C@@H](NC(=O)[C@@H](NC(=O)[C@H](CO)NC(=O)[C@H](C)NC(=O)[C@@H](NC(=O)[C@@H](N)CO)[C@@H](C)O)[C@@H](C)O)C(C)C)[C@@H](C)O)C(=O)N[C@@H](C)C(=O)N[C@@H](Cc1c[nH]cn1)C(=O)N[C@@H](CO)C(=O)NCC(N)=O [STASTVE(pY)STVAHSG] (H-STASTVE[pY]STVAHSG-NH2; N-terminus assumed) | 10 | 1100 | 
CC(C)[C@H](NC(=O)[C@@H](NC(=O)[C@@H](NC(=O)[C@H](C)NC(=O)[C@H](Cc1ccc(OP(=O)(O)O)cc1)NC(=O)[C@H](CCC(=O)O)NC(=O)[C@@H](NC(=O)[C@@H](NC(=O)[C@H](CO)NC(=O)[C@H](C)NC(=O)[C@@H](NC(=O)[C@@H](N)CO)[C@@H](C)O)[C@@H](C)O)C(C)C)[C@@H](C)O)C(C)C)C(=O)N[C@@H](Cc1c[nH]cn1)C(=O)N[C@@H](CO)C(=O)NCC(N)=O [STASTVE(pY)ATVVHSG] (H-STASTVE[pY]ATVVHSG-NH2; N-terminus assumed) | 0.65 |  | 
CC(C)[C@H](NC(=O)[C@@H](NC(=O)[C@@H](NC(=O)[C@H](CO)NC(=O)[C@H](Cc1ccc(OP(=O)(O)O)cc1)NC(=O)[C@H](CCC(=O)O)NC(=O)[C@@H](NC(=O)[C@@H](NC(=O)[C@H](CO)NC(=O)[C@H](C)NC(=O)[C@@H](NC(=O)[C@@H](N)CO)[C@@H](C)O)[C@@H](C)O)C(C)C)[C@@H](C)O)C(C)C)C(=O)N[C@@H](C)C(=O)N[C@@H](CO)C(=O)NCC(N)=O [STASTVE(pY)STVVASG] (H-STASTVE[pY]STVVASG-NH2; N-terminus assumed) | 7.0 |  | 
CC(=O)N[C@@H](CCC(=O)O)C(=O)N[C@@H](Cc1ccc(OP(=O)(O)O)cc1)C(=O)N[C@@H](CO)C(=O)N[C@H](C(=O)N[C@H](C(=O)N[C@H](C(=O)N[C@@H](Cc1c[nH]cn1)C(=O)N[C@@H](CO)C(=O)NCC(N)=O)C(C)C)C(C)C)[C@@H](C)O [AcE(pY)STVVHSG] (Ac-E[pY]STVVHSG-NH2) | 8.8 |  | 
CC(=O)N[C@@H](Cc1ccc(OP(=O)(O)O)cc1)C(=O)N[C@@H](CO)C(=O)N[C@H](C(=O)N[C@H](C(=O)N[C@H](C(=O)N[C@@H](Cc1c[nH]cn1)C(=O)N[C@@H](CO)C(=O)NCC(N)=O)C(C)C)C(C)C)[C@@H](C)O [Ac(pY)STVVHSG] (Ac-[pY]STVVHSG-NH2) | 87 |  | 
CC(=O)N[C@H](C(=O)N[C@H](C(=O)N[C@@H](CCC(=O)O)C(=O)N[C@@H](Cc1ccc(OP(=O)(O)O)cc1)C(=O)N[C@@H](CO)C(=O)N[C@H](C(=O)N[C@H](C(=O)N[C@H](C(=O)N[C@@H](Cc1c[nH]cn1)C(=O)N[C@@H](CO)C(=O)NCC(N)=O)C(C)C)C(C)C)[C@@H](C)O)C(C)C)[C@@H](C)O [AcTVE(pY)STVVHSG] | 1.1 |  | 
CC(C)[C@H](NC(=O)[C@H](C)NC(=O)[C@@H](NC(=O)[C@H](CO)NC(=O)[C@H](Cc1ccc(OP(=O)(O)O)cc1)NC(=O)[C@H](CCC(=O)O)NC(=O)[C@@H](NC(=O)[C@@H](NC(=O)[C@H](CO)NC(=O)[C@H](C)NC(=O)[C@@H](NC(=O)[C@@H](N)CO)[C@@H](C)O)[C@@H](C)O)C(C)C)[C@@H](C)O)C(=O)N[C@@H](Cc1c[nH]cn1)C(=O)N[C@@H](CO)C(=O)NCC(N)=O [STASTVE(pY)STAVHSG] (H-STASTVE[pY]STAVHSG-NH2; N-terminus assumed) | 31 |  | 
CC(C)[C@H](NC(=O)[C@@H](NC(=O)[C@@H](NC(=O)[C@H](CO)NC(=O)[C@H](Cc1ccc(OP(=O)(O)O)cc1)NC(=O)[C@H](CCC(=O)O)NC(=O)[C@@H](NC(=O)[C@@H](NC(=O)[C@H](CO)NC(=O)[C@H](C)NC(=O)[C@@H](NC(=O)[C@@H](N)CO)[C@@H](C)O)[C@@H](C)O)C(C)C)[C@@H](C)O)C(C)C)C(=O)N[C@@H](Cc1c[nH]cn1)C(N)=O [STASTVE(pY)STVVH] (H-STASTVE[pY]STVVH-NH2; N-terminus assumed) | 0.70 |  | 
CC(C)[C@H](NC(=O)[C@@H](NC(=O)[C@@H](NC(=O)[C@H](CO)NC(=O)[C@H](Cc1ccc(OP(=O)(O)O)cc1)NC(=O)[C@H](CCC(=O)O)NC(=O)[C@@H](NC(=O)[C@@H](NC(=O)[C@H](CO)NC(=O)[C@H](C)NC(=O)[C@@H](NC(=O)[C@@H](N)CO)[C@@H](C)O)[C@@H](C)O)C(C)C)[C@@H](C)O)C(C)C)C(N)=O [STASTVE(pY)STVV] (H-STASTVE[pY]STVV-NH2; N-terminus assumed) | 10 | 1100 | 
CC(=O)N[C@@H](C)C(=O)N[C@@H](CCC(=O)O)C(=O)N[C@@H](Cc1ccc(OP(=O)(O)O)cc1)C(=O)N[C@@H](CO)C(=O)N[C@H](C(=O)N[C@H](C(=O)N[C@H](C(=O)N[C@@H](Cc1c[nH]cn1)C(=O)N[C@@H](CO)C(=O)NCC(N)=O)C(C)C)C(C)C)[C@@H](C)O [AcAE(pY)STVVHSG] (Ac-AE[pY]STVVHSG-NH2) | 5.3 |  | 
B1 |  |  | 970
B2 |  |  | 1100
B3 |  |  | 120
B4 |  |  | 9600
B5 |  |  | 770
B6 |  |  | 550
